US5668182A, “Method of calming or sedating an animal with a hydroxy benzaldehyde compound” (priority 1996, dated 1997)

Tests used:
mice = assay: Metrazol-induced seizures in mice (Example 5); assay type: in vivo; settings: for Death: Metrazol 90 mg/kg i.p. (vehicle 0/6); for Tonic Convulsion: Metrazol 90 mg/kg i.p. (vehicle 6/6)
Procedure: Mice were treated with vanillin (100, 200, or 300 mg/kg) or saline (0.9% NaCl) by i.p. injection. The treatment was followed either by injection of pentylenetetrazol ("Metrazol"), 80 or 90 mg/kg by i.p. injection (given 5 minutes after vanillin) or by exposure to a 1-second pulse of shock through electrodes clamped to the ears (5 minutes after vanillin). The end-points for both tests were the occurrence of a tonic (extensor) convulsion and/or death. Six mice were used per group for the Metrazol-induced seizure test, and five mice were used per group for the electroshock-induced seizure test.

rats = assay: Behavioral depression in rats after i.v. infusion (Example 1); assay type: in vivo; settings: for Grip Absent (number of rats): first figure of cell; for Grip Weak (number of rats): second figure of cell
Procedure: To assess behavioral depression in rats as induced by vanillin, male and female rats, five of each gender at each dose, were given doses of vanillin of 50, 100 or 200 mg/kg, respectively, or a control vehicle (0.9% sodium chloride in water) by intravenous (i.v.) infusion. Therefore, there were four groups of rats with ten rats per group tested at each dosage. The solution was infused into a tail vein through a butterfly cannula, with the infusion being performed at a constant rate over a 5-minute period using a Harvard infusion pump.
The evaluations were performed on days 1, 3, 5 and 9 of vanillin administration.

[1] = 50 mg/kg i.v., day 1, <2 min, 10 rats per group
[2] = highest dose (200 mg/kg i.v.), day 1
[3] = highest dose (200 mg/kg i.v.), days 5 and 9

## COc1cc(C=O)ccc1O [vanillin, 4-hydroxy-3-methoxybenzaldehyde]
mice; 300 mg/kg
  protection versus Metrazol-induced seizures: some protection
mice; particularly at higher doses, data of Table 5
  anticonvulsant activity: some mild anticonvulsant activity
mice; vanillin 200 mg/kg i.p.
  Death: 2/6
  Tonic Convulsion: 5/6
mice; vanillin 300 mg/kg i.p.
  Death: 0/6
  Tonic Convulsion: 1/6
rats; 50 mg/kg i.v., day 1, 10 min
  Ambulation Absent (number of rats): 0
  Grip Absent (number of rats): 0
  Grip Weak (number of rats): 0
rats; 50 mg/kg i.v., day 1, 10 min, 10 rats per group
  Sign of depression: Score > 0 (number of rats): 0
rats; 50 mg/kg i.v., day 1, 20 min
  Ambulation Absent (number of rats): 0
  Grip Absent (number of rats): 0
  Grip Weak (number of rats): 0
rats; 50 mg/kg i.v., day 1, 20 min, 10 rats per group
  Sign of depression: Score > 0 (number of rats): 0
rats; 50 mg/kg i.v., day 1, 30 min
  Ambulation Absent (number of rats): 0
  Grip Absent (number of rats): 0
  Grip Weak (number of rats): 0
rats; 50 mg/kg i.v., day 1, 30 min, 10 rats per group
  Sign of depression: Score > 0 (number of rats): 0
rats; 50 mg/kg i.v., day 1, 45 min
  Ambulation Absent (number of rats): 0
  Grip Absent (number of rats): 0
  Grip Weak (number of rats): 0
rats; 50 mg/kg i.v., day 1, 45 min, 10 rats per group
  Sign of depression: Score > 0 (number of rats): 0
rats; [1]
  Ambulation Absent (number of rats): 0
  Grip Absent (number of rats): 0
  Grip Weak (number of rats): 1
rats; 50 mg/kg i.v., day 1, <2 min after treatment, 10 rats per group
  Sign of depression: Score > 0 (number of rats): 0
rats; 100 mg/kg i.v., day 1, 10 min
  Ambulation Absent (number of rats): 0
  Grip Absent (number of rats): 0
  Grip Weak (number of rats): 2
rats; 100 mg/kg i.v., day 1, 10 min, 10 rats per group
  Sign of depression: Score > 0 (number of rats): 0
rats; 100 mg/kg i.v., day 1, 20 min
  Ambulation Absent (number of rats): 0
  Grip Absent (number of rats): 0
  Grip Weak (number of rats): 0
rats; 100 mg/kg i.v., day 1, 20 min, 10 rats per group
  Sign of depression: Score > 0 (number of rats): 0
rats; 100 mg/kg i.v., day 1, 30 min
  Ambulation Absent (number of rats): 0
  Grip Absent (number of rats): 0
  Grip Weak (number of rats): 0
rats; 100 mg/kg i.v., day 1, 30 min, 10 rats per group
  Sign of depression: Score > 0 (number of rats): 0
rats; 100 mg/kg i.v., day 1, 45 min
  Ambulation Absent (number of rats): 0
  Grip Absent (number of rats): 0
  Grip Weak (number of rats): 0
rats; 100 mg/kg i.v., day 1, 45 min, 10 rats per group
  Sign of depression: Score > 0 (number of rats): 0
rats; 100 mg/kg i.v., day 1, <2 min
  Ambulation Absent (number of rats): 0
  Grip Absent (number of rats): 0
  Grip Weak (number of rats): 6
rats; 100 mg/kg i.v., day 1, <2 min after treatment, 10 rats per group
  Sign of depression: Score > 0 (number of rats): 0
rats; 200 mg/kg i.v., day 1, 10 min
  Ambulation Absent (number of rats): 0
  Grip Absent (number of rats): 0
  Grip Weak (number of rats): 8
rats; 200 mg/kg i.v., day 1, 10 min, 10 rats per group
  Sign of depression: Score > 0 (number of rats): 0
rats; 200 mg/kg i.v., day 1, 20 min
  Ambulation Absent (number of rats): 0
  Grip Absent (number of rats): 0
  Grip Weak (number of rats): 8
rats; 200 mg/kg i.v., day 1, 20 min, 10 rats per group
  Sign of depression: Score > 0 (number of rats): 0
rats; 200 mg/kg i.v., day 1, 30 min
  Ambulation Absent (number of rats): 0
  Grip Absent (number of rats): 0
  Grip Weak (number of rats): 5
rats; 200 mg/kg i.v., day 1, 30 min, 10 rats per group
  Sign of depression: Score > 0 (number of rats): 0
rats; 200 mg/kg i.v., day 1, 45 min
  Ambulation Absent (number of rats): 0
  Grip Absent (number of rats): 0
  Grip Weak (number of rats): 2
rats; 200 mg/kg i.v., day 1, 45 min, 10 rats per group
  Sign of depression: Score > 0 (number of rats): 0
rats; 200 mg/kg i.v., day 1, <2 min
  Ambulation Absent (number of rats): 5
  Grip Absent (number of rats): 10
  Grip Weak (number of rats): 10
rats; 200 mg/kg i.v., day 1, <2 min after treatment, 10 rats per group
  Sign of depression: Score > 0 (number of rats): 3
rats; days 5 and 9
  rats rated with depression scores above zero: no rats
rats; days 5 and 9, almost all rats with diminished grip
  time for diminished grip to return to normal: ≤ 20 min
rats; days 5 and 9, i.v.
  tolerance to depressant effects: some suggestion of tolerance
rats; [2]
  effect on grip strength: obliterated
  persistence of slight effect on grip strength: ≥ 45 min
rats; [3]
  rats displaying absence of grip: 4 of 10
  rats exhibiting no muscular or motor impairment at all: 1
rats; i.v., highest dose 200 mg/kg, day 1, some of the rats
  time for return of ability to walk: less than 10 minutes
rats; intermediate and high dose groups i.v., several rats
  persistence of eye closure: up to 45 minutes
rats; intermediate and high dose groups i.v., several rats, typically
  time to appearance of eye closure: ≤ 10 min
rats; intermediate dose (100 mg/kg i.v.), day 1
  effect on grip strength: weakened in most rats
rats; vanillin given alone, rats
  effects on righting reflex and on motor coordination: mild and transient
